Assay [1] has as its target 5-hydroxytryptamine receptor 2A (Rattus norvegicus, UniProt P14842).
Assay [2] deals with 5-hydroxytryptamine 1D receptor (Bos taurus, UniProt Q8MI13).
In assay [3] the target is T1, 5-hydroxytryptamine receptor 2C (Sus scrofa, UniProt G7ZKZ7).
T1 sequence (G7ZKZ7 whole entry): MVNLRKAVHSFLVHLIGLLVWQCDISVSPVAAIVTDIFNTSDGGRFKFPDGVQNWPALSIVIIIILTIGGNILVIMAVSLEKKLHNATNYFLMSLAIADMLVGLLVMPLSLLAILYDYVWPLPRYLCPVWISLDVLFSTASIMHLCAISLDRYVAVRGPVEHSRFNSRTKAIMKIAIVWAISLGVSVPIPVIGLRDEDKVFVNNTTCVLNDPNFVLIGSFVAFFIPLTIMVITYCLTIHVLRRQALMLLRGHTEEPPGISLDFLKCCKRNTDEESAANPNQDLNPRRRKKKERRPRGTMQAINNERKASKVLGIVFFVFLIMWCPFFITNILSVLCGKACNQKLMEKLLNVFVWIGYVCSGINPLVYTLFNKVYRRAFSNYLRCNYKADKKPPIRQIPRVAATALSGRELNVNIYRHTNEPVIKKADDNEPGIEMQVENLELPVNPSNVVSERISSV

The target in assay [4] is T2, Alpha-1A adrenergic receptor (Bos taurus, UniProt P18130).
T2 sequence (P18130 whole entry): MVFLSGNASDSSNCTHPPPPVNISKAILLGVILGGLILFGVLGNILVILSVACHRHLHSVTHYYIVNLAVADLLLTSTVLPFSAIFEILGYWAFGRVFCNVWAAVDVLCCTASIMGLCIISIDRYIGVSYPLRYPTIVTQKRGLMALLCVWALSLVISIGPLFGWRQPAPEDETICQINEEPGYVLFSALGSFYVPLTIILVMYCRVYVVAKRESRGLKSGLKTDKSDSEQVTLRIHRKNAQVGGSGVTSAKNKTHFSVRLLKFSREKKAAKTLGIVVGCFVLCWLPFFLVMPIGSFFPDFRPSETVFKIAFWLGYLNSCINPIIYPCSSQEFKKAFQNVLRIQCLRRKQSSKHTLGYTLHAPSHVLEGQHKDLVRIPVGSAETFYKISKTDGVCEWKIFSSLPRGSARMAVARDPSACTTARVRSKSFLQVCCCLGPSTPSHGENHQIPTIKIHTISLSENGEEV

Assay [5] addresses T3, Alpha-2A adrenergic receptor (Bos taurus, UniProt Q28838).
T3 sequence (Q28838 whole entry): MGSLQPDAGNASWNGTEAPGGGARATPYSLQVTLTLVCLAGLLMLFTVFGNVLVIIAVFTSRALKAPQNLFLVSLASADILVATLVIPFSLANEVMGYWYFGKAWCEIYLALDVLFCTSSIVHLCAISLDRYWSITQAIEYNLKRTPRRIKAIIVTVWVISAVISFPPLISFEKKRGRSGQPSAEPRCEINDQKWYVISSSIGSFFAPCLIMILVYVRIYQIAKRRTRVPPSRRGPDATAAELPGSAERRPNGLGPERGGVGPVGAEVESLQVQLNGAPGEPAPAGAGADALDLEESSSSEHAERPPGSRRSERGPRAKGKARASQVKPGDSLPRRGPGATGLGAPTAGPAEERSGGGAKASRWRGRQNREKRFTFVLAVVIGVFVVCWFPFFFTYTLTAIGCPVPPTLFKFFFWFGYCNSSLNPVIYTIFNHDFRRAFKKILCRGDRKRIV

The target in the next assay is Mu-type opioid receptor (Rattus norvegicus, UniProt P33535).
Mu-type opioid receptor, sequence (P33535 whole entry): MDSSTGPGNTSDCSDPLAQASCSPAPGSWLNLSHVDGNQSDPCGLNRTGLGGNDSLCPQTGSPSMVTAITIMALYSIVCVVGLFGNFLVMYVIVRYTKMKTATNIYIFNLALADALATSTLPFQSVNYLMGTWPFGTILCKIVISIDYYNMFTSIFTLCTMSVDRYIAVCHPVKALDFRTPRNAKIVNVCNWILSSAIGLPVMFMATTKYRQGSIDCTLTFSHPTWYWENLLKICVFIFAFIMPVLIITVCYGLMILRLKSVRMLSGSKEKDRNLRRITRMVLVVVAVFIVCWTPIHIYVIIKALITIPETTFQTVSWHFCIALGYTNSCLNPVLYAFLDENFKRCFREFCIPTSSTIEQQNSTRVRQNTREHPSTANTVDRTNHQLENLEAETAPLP

The Ki is the dissociation constant of the complex between target and ligand, obtained from inhibition or displacement.

5-hydroxytryptamine 1D receptor, sequence (Q8MI13 whole entry): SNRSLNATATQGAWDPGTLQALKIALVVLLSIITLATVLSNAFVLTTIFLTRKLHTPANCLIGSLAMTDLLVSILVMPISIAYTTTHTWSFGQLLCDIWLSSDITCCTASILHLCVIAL
5-hydroxytryptamine receptor 2A, sequence (P14842 whole entry): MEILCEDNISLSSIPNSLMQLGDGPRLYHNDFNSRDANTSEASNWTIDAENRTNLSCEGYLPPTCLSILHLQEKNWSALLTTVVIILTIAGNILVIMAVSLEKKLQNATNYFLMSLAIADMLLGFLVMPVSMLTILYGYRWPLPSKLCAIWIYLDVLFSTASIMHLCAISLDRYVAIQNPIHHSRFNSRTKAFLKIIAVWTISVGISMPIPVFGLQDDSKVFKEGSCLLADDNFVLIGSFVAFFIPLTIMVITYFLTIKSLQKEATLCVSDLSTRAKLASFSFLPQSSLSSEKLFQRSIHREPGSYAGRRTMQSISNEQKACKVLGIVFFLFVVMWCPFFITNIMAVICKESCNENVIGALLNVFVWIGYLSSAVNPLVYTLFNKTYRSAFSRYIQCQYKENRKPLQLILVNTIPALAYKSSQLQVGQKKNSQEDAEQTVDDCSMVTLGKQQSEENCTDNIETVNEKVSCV

Regarding `CCN(CC)CCOC(=O)c1cc(Cl)c(N)cc1OC` [SDZ-205557], the Ki in assay [1] was > 10 µM; in assay [2] it was 2.51 µM; in assay [3], 3.98 µM; in assay [4] it was 6.31 µM; in assay [5], > 10 µM; on Mu-type opioid receptor, > 10 µM.
